Test results: US7704995B2 (Exelixis, Inc., priority 2003, dated 2010)

target: T1, Chk1 (Homo sapiens, UniProt O14757); assay: Chk1 kinase assay: incorporation of γ-33P ATP into immobilized myelin basic protein; type: biochemical; conditions: Table 11, Chk1 only; class symbols A-D; read-out: Chk1 IC50
T1 construct: purchased Upstate Biotechnology
T1 sequence (O14757 1-476): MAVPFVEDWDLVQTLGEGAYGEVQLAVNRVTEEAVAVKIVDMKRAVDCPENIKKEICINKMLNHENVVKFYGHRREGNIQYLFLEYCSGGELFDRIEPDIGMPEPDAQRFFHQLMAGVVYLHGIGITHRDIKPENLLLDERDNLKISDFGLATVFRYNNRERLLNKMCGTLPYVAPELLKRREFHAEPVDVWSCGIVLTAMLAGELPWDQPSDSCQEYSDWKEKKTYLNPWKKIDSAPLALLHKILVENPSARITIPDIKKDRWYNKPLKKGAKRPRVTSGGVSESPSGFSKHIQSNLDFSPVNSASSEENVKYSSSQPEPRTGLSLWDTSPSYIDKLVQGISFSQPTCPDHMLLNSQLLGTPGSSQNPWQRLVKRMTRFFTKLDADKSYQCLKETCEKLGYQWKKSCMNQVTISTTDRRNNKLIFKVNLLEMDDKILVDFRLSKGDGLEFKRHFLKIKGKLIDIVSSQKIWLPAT
Procedure, shortened: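 Read-out is scintillation counting of 33P incorporated into plate-bound myelin basic protein. Chk1 runs at 10 nM enzyme with 10 μM ATP, Chk2 at 20 nM with 30 μM ATP, each for 1 hour at room temperature. Duplicate points; IC50 taken as 50% activity reduction, Ki computed from IC50.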

IC50	Structure (SMILES)
50 to 1000 nM	Nc1ncc(-c2cccc(C(=O)NCc3c(F)cccc3F)c2)nc1-c1nc([C@H]2CCCNC2)n[nH]1 [Example 827, 3-(5-amino-6-{3-[(3S)-piperidin-3-yl]-1H-1,2,4-triazol-5-yl}pyrazin-2-yl)-N-[(2,6-difluorophenyl)methyl]benzamide]
< 50 nM	Nc1ncc(-c2cccc(C(=O)NCc3ccc(-c4csnn4)cc3)c2)nc1C(=O)N[C@H]1CCCNC1 [Example 963, 3-amino-N-[(3S)-piperidin-3-yl]-6-{3-[({[4-(1,2,3-thiadiazol-4-yl)phenyl]methyl}amino)carbonyl]phenyl}pyrazine-2-carboxamide]
< 50 nM	Nc1ncc(-c2cccc(NC(=O)Cc3cccnc3)c2)nc1C(=O)N[C@H]1CCCNC1 [Example 980, 3-amino-N-[(3S)-piperidin-3-yl]-6-{3-[(pyridin-3-ylacetyl)amino]phenyl}pyrazine-2-carboxamide]
< 50 nM	COc1ccccc1CNC(=O)c1cccc(-c2cnc(N)c(C(=O)N[C@H]3CCCNC3)n2)c1 [Example 855, 3-amino-6-{3-[({[2-(methyloxy)phenyl]methyl}amino)carbonyl]phenyl}-N-[(3S)-piperidin-3-yl]pyrazine-2-carboxamide]
< 50 nM	Nc1ncc(-c2cccc(CNC(=O)Nc3ccccc3Br)c2)nc1C(=O)N[C@H]1CCCNC1 [Example 922, 3-amino-6-{3-[({[(2-bromophenyl)amino]carbonyl}amino)methyl]phenyl}-N-[(3S)-piperidin-3-yl]pyrazine-2-carboxamide]
< 50 nM	NCc1cccc(-c2cnc(N)c(C(=O)N[C@H]3CCCNC3)n2)c1 [Example 839, 3-amino-6-[3-(aminomethyl)phenyl]-N-[(3S)-piperidin-3-yl]pyrazine-2-carboxamide]

same assay, conditions: Table 11; Chk1 only; read-out: Chk1 IC50

IC50	Structure (SMILES)
≥ 10000 nM	Nc1ncc(-c2cccc(C(=O)NCc3ccccc3)c2)nc1C(=O)NCCCNS(=O)(=O)c1cccc2cccnc12 [Example 653, 3-amino-6-(3-{[(phenylmethyl)amino]carbonyl}phenyl)-N-{3-[(quinolin-8-ylsulfonyl)amino]propyl}pyrazine-2-carboxamide]
50 to 1000 nM	CCN1CCCC(NC(=O)c2nc(-c3cccc(C(=O)N[C@H]4CCc5ccccc54)c3)cnc2N)C1 (stereo partly drawn) [Example 730, 3-amino-6-(3-{[(1S)-2,3-dihydro-1H-inden-1-ylamino]carbonyl}phenyl)-N-(1-ethylpiperidin-3-yl)pyrazine-2-carboxamide]
50 to 1000 nM	Nc1ncc(-c2cccc(C(=O)N[C@H]3c4ccccc4C[C@H]3O)c2)nc1C(=O)N[C@H]1CCNC1 [Example 708, 3-amino-6-[3-({[(1S,2R)-2-hydroxy-2,3-dihydro-1H-inden-1-yl]amino}carbonyl)phenyl]-N-[(3S)-pyrrolidin-3-yl]pyrazine-2-carboxamide]
< 50 nM	CNC(=O)c1nc(-c2cccc(CN[C@H]3CCCc4ccccc43)c2)cnc1N [Example 436, 3-amino-N-methyl-6-(3-{[(1S)-1,2,3,4-tetrahydronaphthalen-1-ylamino]methyl}phenyl)pyrazine-2-carboxamide]
50 to 1000 nM	CNC(=O)c1nc(-c2cccc(CNC3CCCC3)c2)cnc1N [Example 500, 3-amino-6-{3-[(cyclopentylamino)methyl]phenyl}-N-methylpyrazine-2-carboxamide]
50 to 1000 nM	CNC(=O)c1nc(-c2cccc(CNC3CCc4cc(-n5cncn5)ccc43)c2)cnc1N (centres unmarked) [Example 512, 3-amino-N-methyl-6-[3-({[5-(1H-1,2,4-triazol-1-yl)-2,3-dihydro-1H-inden-1-yl]amino}methyl)phenyl]pyrazine-2-carboxamide]
1000 to 10000 nM	Cc1nc(-c2nc(-c3cccc(C(=O)NCc4ccccc4)c3)cnc2N)nn1-c1ccccn1 [Example 702, 3-[5-amino-6-(5-methyl-1-pyridin-2-yl-1H-1,2,4-triazol-3-yl)pyrazin-2-yl]-N-(phenylmethyl)benzamide]
≥ 10000 nM	CC(C)(C)OC(=O)N1CC[C@@H](CNC(=O)c2nc(-c3cccc(C(=O)N[C@@H]4c5ccccc5C[C@@H]4O)c3)cnc2N)C1 [Example 769, 1,1-dimethylethyl (3S)-3-{[({3-amino-6-[3-({[(1R,2S)-2-hydroxy-2,3-dihydro-1H-inden-1-yl]amino}carbonyl)phenyl]pyrazin-2-yl}carbonyl)amino]methyl}pyrrolidine-1-carboxylate]
≥ 10000 nM	Nc1ncc(-c2cccc(C(=O)NCc3ccccc3)c2)nc1C(=O)N1CCC(N)CC1 [Example 618, 3-{5-amino-6-[(4-aminopiperidin-1-yl)carbonyl]pyrazin-2-yl}-N-(phenylmethyl)benzamide]
50 to 1000 nM	Nc1ncc(-c2cccc(CO)c2)nc1-c1nc([C@@H]2CCCNC2)n[nH]1 [Example 724, [3-(5-amino-6{3-[(3R)-piperidin-3-yl]-1H-1,2,4-triazol-5-yl}pyrazin-2-yl)phenyl]methanol]
≥ 10000 nM	CC(C)(C)OC(=O)N1CCCC(NC(=O)c2nc(-c3cccc(C(=O)N[C@H]4CCc5ccccc54)c3)cnc2N)C1 (stereo partly drawn) [Example 728, 1,1-dimethylethyl 3-({[3-amino-6-(3-{[(1S)-2,3-dihydro-1H-inden-1-ylamino]carbonyl}phenyl)pyrazin-2-yl]carbonyl}amino)piperidine-1-carboxylate]
≥ 10000 nM	C/C(=N\Nc1ccc(C)cc1)c1nc(-c2cccc(C(=O)NCc3ccccc3)c2)cnc1N [Example 602, 3-{5-amino-6-[(1E)-N-(4-methylphenyl)ethanehydrazonoyl]pyrazin-2-yl}-N-(phenylmethyl)benzamide]
50 to 1000 nM	CNC(=O)c1nc(-c2cccc(CNCc3cc(-c4cccs4)ccc3F)c2)cnc1N [Example 457, 3-amino-6-{3-[({[2-fluoro-5-(2-thienyl)phenyl]methyl}amino)methyl]phenyl}-N-methylpyrazine-2-carboxamide]
1000 to 10000 nM	Nc1ncc(-c2cccc(CN[C@H]3CCc4ccccc43)c2)nc1C(=O)NCC(F)(F)F [Example 537, 3-amino-6-(3-{[(1S)-2,3-dihydro-1H-inden-1-ylamino]methyl}phenyl)-N-(2,2,2-trifluoroethyl)pyrazine-2-carboxamide]

same assay, conditions: read-out: Chk1 IC50

IC50	Structure (SMILES)
50 to 1000 nM	CNC(=O)c1nc(-c2cccc(CNC(=O)c3ccccc3)c2)cnc1N [Example 308, 3-amino-N-methyl-6-(3-{[(phenylcarbonyl)amino]methyl}phenyl)pyrazine-2-carboxamide]
50 to 1000 nM	CNC(=O)c1nc(-c2cccc(NC(=O)NCc3ccccc3)c2)cnc1N [Example 168, 3-amino-N-methyl-6-[3-({[(phenylmethyl)amino]carbonyl}amino)phenyl]pyrazine-2-carboxamide]
50 to 1000 nM	CNC(=O)c1nc(-c2cccc(C(=O)NCC3CCN(C(=O)OC(C)(C)C)C3)c2)cnc1N (centres unmarked) [Example 364, 1,1-dimethylethyl 3-({[(3-{5-amino-6-[(methylamino)carbonyl]pyrazin-2-yl}phenyl)carbonyl]amino}methyl)pyrrolidine-1-carboxylate]
50 to 1000 nM	CNC(=O)c1nc(-c2cccc(C(=O)NCc3ccc(N(C)C)cc3)c2)cnc1N [Example 238, 3-amino-6-{3-[({[4-(dimethylamino)phenyl]methyl}amino)carbonyl]phenyl}-N-methylpyrazine-2-carboxamide]
50 to 1000 nM	CNC(=O)c1nc(-c2cccc(C(=O)NCc3cccc(O)c3)c2)cnc1N [Example 326, 3-amino-6-[3-({[(3-hydroxyphenyl)methyl]amino}carbonyl)phenyl]-N-methylpyrazine-2-carboxamide]
50 to 1000 nM	CNC(=O)c1nc(-c2cccc(C(=O)NCc3ccoc3)c2)cnc1N [Example 201, 3-amino-6-(3-{[(furan-3-ylmethyl)amino]carbonyl}phenyl)-N-methylpyrazine-2-carboxamide]
50 to 1000 nM	CNC(=O)c1nc(-c2cccc(C(=O)NCc3ccccc3Br)c2)cnc1N [Example 305, 3-amino-6-[3-({[(2-bromophenyl)methyl]amino}carbonyl)phenyl]-N-methylpyrazine-2-carboxamide]
1000 to 10000 nM	CNC(=O)c1nc(-c2cccc(C(=O)NC(C)c3ccc(F)cc3)c2)cnc1N (centres unmarked) [Example 112, 3-amino-6-[3-({[1-(4-fluorophenyl)ethyl]amino}carbonyl)phenyl]-N-methylpyrazine-2-carboxamide]
50 to 1000 nM	CNC(=O)c1nc(-c2cccc(CNCc3cccc(C(F)(F)F)c3)c2)cnc1N [Example 426, 3-amino-N-methyl-6-{3-[({[3-(trifluoromethyl)phenyl]methyl}amino)methyl]phenyl}pyrazine-2-carboxamide]
50 to 1000 nM	CNC(=O)c1nc(-c2cccs2)cnc1N [Example 268, 3-amino-N-methyl-6-(2-thienyl)pyrazine-2-carboxamide]
50 to 1000 nM	CNC(=O)c1nc(-c2cccc(CNC(=O)CSc3ccc(N)cc3)c2)cnc1N [Example 347, 3-amino-6-{3-[({[(4-aminophenyl)thio]acetyl}amino)methyl]phenyl}-N-methylpyrazine-2-carboxamide]
50 to 1000 nM	CNC(=O)c1nc(-c2cccc(NC(=O)c3ccc(Cl)cc3)c2)cnc1N [Example 111, 3-amino-6-(3-{[(4-chlorophenyl)carbonyl]amino}phenyl)-N-methylpyrazine-2-carboxamide]
